Data set [1] can be described thus: Half life in Cynomolgus monkey rat at 5 mg/kg, po measured upto 24 hrs. Format: ADME, organism-based, Macaca fascicularis. As to conditions: in vivo.
Another data set deals with Rattus norvegicus. The experiment in a line: Neuroprotective activity against galantamine-induced Sprague-Dawley rat model of Parkinson's disease assessed as reduction in galantamine-induced tremulous jaw movements at 0.156 to 1.25 mg/kg, ip preincubated with galantamine for 15 mins followed by compound addition and measured after 15 mins. As to conditions: dose 0.156-1.25 mg/kg. Format: functional, organism-based.

Data set [2] can be described thus: Apparent permeability in MDCK-MDR1 cells from basal to apical side at 10 uM. Format: ADME, cell-based, Canis lupus familiaris. As to conditions: dog.
Data set [3] can be described thus: Volume of distribution at steady state in Sprague dawley rat at 1 mg/kg, iv measured upto 24 hrs. Format: ADME, organism-based. The conditions noted are these: in vivo, read-out: Vdss.
Data set [4] is described as follows: Plasma protein binding in rat assessed as unbound fraction at 1 uM measured after 5 hrs by LC-MS/MS analysis. Format: ADME, cell-free.
A short description of data set [5]: Toxicity in MPTP-induced C57BL/6 mouse model of Parkinson's disease assessed as effect on locomotor activity by measuring rearing activity at 0.625 to 1.25 mg/kg, ip pretreated for 15 mins followed by MPTP challenge and measured after 5 days post MPTP challenge. Format: organism-based. As to conditions: in vivo, 120 h, dose 0.625-1.25 mg/kg, time 5 day.
The nature of data set [6]: AUC (0-t) in Sprague dawley rat at 1 mg/kg, iv measured upto 24 hrs. Format: ADME, organism-based. On the set-up: route intravenous, dose 1 mg/kg, time <=24. As to conditions: in vivo.
Data set [7] in a line: Cmax in Sprague dawley rat at 5 mg/kg, po measured upto 24 hrs. Format: ADME, organism-based. On the set-up: route oral, dose 5 mg/kg, time <=24. As to conditions: in vivo.
The next data set addresses Cytochrome P450 2C9 (Homo sapiens, UniProt P11712). The experiment in a line: Inhibition of human CYP2C9 preincubated for 10 min followed by addition of NADPH and measured after 10 min by LC-MS/MS analysis. Format: ADME.
The nature of data set [8]: Metabolic stability in dog liver microsome assessed as half life at 1 uM measured after 60 min in presence of NADPH by LC-MS/MS analysis. Format: ADME, Canis lupus familiaris. As to conditions: liver microsomes.
Data set [9] can be described thus: Metabolic stability in rat liver microsome assessed as half life at 1 uM measured after 60 min in presence of NADPH by LC-MS/MS analysis. Format: ADME. As to conditions: liver microsomes.
In a further data set the test system is Mus musculus. The experiment in a line: In vivo inhibition of MAO-B in ICR mouse brain at 0.4 to 2 mg/kg, ip administered once a week for 21 days by fluorescence based monoamine oxidase assay. Format: functional, organism-based. The conditions noted are these: dose 0.4-2 mg/kg, time 21.0 day.
The next data set addresses hERG (KCNH2) (Homo sapiens, UniProt Q12809). The experiment in a line: Inhibition of human ERG expressed in CHO-K1 cells by Patch Clamp method. Format: toxicity, cell-based. The conditions noted are these: CHO-K1 cells expressing human ERG. In general terms: In patch-clamp work, channel activity is measured electrically.
Data set [10] can be described thus: Cmax in Cynomolgus monkey rat at 5 mg/kg, po measured upto 24 hrs. Format: ADME, organism-based, Macaca fascicularis. More on the design: route oral, dose 5 mg/kg, time <=24. As to conditions: in vivo.
A short description of data set [11]: Metabolic stability in monkey liver microsome assessed as half life at 1 uM measured after 60 min in presence of NADPH by LC-MS/MS analysis. Format: ADME, Macaca mulatta. As to conditions: rhesus monkey, liver microsomes. A general note: Microsomes from liver hold many membrane-bound enzymes, among them those of drug oxidation.
Data set [12] in a line: Half life in Sprague dawley rat at 5 mg/kg, po measured upto 24 hrs. Format: ADME, organism-based. As to conditions: in vivo.
The target of data set [13] is 5-hydroxytryptamine receptor 2B (Homo sapiens) (UniProt P41595). The experiment in a line: Binding affinity to 5-HT2B receptor (unknown origin) expressed in CHO-K1 cells. Format: cell-based. As to conditions: concentration not given here.
The nature of data set [14]: Half life in Cynomolgus monkey at 1 mg/kg, iv measured upto 24 hrs. Format: ADME, organism-based, Macaca fascicularis. The conditions noted are these: in vivo.
A short description of data set [15]: Apparent permeability in MDCK-MDR1 cells from apical to basal side at 10 uM. Format: ADME, cell-based, Canis lupus familiaris. As to conditions: dog.
Data set [16] is described as follows: AUC (0-t) in Sprague dawley rat at 5 mg/kg, po measured upto 24 hrs. More on the design: route oral, dose 5 mg/kg, time <=24. The conditions noted are these: in vivo. Format: ADME, organism-based.
A short description of data set [17]: Plasma protein binding in dog assessed as unbound fraction at 1 uM measured after 5 hrs by LC-MS/MS analysis. Format: ADME, cell-free, Canis lupus familiaris.
A short description of data set [18]: Oral bioavailability in Cynomolgus monkey rat at 5 mg/kg measured upto 24 hrs. As to conditions: in vivo. Format: ADME, organism-based, Macaca fascicularis.
The target in the next data set is Cytochrome P450 3A4 (Homo sapiens, UniProt P08684). The experiment in a line: Inhibition of human CYP3A4 preincubated for 10 min followed by addition of NADPH and measured after 5 min by LC-MS/MS analysis. Format: ADME.
A short description of data set [19]: Plasma protein binding in monkey assessed as unbound fraction at 1 uM measured after 5 hrs by LC-MS/MS analysis. Format: ADME, cell-free, Macaca mulatta. The conditions noted are these: rhesus monkey.

Activity calls are given as the source filed them. The rule behind the calls is not given here. Where only a bound is given, the exact number is not on record here.

hERG (KCNH2), sequence (Q12809 whole entry): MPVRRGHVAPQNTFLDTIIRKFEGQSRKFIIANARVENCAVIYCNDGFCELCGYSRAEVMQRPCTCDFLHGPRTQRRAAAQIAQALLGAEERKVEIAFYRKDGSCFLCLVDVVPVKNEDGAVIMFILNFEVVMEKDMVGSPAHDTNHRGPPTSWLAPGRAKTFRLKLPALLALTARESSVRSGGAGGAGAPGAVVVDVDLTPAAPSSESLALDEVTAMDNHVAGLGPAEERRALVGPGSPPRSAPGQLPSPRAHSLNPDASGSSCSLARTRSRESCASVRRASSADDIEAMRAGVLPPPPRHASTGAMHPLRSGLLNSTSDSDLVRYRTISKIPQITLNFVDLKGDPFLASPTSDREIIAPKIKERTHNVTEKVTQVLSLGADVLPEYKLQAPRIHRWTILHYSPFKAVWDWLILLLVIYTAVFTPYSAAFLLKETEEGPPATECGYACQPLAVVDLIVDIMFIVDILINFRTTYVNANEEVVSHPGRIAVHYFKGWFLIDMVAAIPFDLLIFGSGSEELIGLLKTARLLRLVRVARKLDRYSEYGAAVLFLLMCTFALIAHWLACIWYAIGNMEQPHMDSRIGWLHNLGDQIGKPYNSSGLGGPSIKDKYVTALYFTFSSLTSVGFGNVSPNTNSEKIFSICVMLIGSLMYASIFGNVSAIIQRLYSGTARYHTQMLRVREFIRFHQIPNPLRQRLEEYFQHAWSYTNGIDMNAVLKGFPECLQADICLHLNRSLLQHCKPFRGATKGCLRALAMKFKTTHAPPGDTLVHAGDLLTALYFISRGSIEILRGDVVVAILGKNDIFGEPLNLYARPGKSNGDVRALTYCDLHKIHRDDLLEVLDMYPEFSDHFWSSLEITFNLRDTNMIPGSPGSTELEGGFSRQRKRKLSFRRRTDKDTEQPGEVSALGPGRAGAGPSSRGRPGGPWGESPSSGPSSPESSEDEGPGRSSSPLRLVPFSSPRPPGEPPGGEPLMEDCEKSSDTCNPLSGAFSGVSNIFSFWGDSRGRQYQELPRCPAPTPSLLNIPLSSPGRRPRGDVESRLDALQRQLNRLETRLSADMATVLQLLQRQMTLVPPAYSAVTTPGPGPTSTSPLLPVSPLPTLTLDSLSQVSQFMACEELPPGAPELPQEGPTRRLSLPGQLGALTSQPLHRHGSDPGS
Cytochrome P450 3A4, sequence (P08684 whole entry): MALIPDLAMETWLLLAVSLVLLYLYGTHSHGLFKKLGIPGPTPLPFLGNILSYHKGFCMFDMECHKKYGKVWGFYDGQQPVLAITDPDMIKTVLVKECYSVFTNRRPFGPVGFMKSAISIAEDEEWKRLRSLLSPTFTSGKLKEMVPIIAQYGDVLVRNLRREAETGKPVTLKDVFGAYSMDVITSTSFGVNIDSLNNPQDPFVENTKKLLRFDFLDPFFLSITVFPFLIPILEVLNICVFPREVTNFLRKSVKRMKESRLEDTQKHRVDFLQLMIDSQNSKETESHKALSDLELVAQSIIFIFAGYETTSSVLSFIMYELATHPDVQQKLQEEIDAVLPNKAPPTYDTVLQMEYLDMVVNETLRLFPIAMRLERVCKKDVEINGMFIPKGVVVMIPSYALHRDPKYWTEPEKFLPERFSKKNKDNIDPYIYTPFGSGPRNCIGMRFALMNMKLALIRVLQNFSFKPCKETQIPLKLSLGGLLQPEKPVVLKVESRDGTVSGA
5-hydroxytryptamine receptor 2B (Homo sapiens), sequence (P41595 whole entry): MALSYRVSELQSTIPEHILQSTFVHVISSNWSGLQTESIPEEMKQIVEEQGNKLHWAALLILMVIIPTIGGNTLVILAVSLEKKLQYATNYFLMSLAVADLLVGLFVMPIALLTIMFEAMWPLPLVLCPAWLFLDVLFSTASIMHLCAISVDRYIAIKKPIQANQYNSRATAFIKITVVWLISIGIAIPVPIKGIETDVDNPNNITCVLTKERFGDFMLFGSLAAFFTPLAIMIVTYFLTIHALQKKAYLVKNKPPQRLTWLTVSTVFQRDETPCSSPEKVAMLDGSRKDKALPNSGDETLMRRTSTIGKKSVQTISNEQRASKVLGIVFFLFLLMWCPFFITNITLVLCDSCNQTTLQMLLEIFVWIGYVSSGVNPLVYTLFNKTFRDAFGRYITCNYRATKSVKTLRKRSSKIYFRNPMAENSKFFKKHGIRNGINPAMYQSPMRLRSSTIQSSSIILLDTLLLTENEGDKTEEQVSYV
Cytochrome P450 2C9, sequence (P11712 whole entry): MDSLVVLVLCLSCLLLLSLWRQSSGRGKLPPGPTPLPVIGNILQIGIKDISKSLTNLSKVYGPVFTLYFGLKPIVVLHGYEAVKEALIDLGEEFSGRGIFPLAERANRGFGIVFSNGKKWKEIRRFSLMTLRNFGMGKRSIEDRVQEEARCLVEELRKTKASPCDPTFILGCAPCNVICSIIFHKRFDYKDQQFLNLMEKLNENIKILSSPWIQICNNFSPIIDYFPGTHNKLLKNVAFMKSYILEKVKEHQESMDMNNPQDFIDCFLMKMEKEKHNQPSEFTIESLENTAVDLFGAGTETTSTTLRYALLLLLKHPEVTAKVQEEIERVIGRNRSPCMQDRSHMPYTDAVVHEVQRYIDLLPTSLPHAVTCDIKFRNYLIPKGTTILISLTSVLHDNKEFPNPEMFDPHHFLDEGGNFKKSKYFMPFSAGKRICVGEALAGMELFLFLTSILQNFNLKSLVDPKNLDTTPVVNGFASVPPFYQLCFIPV

Regarding `NC(=O)[C@@H]1C[C@H](F)CN1Cc1ccc(OCc2cccc(F)c2)cc1`, the half-life – broadly, how long it takes for the measured level to halve – in [1] is 168 min; in data set [12], 34.2 min; in data set [14], 106 min. Also, the result with Rattus norvegicus was Active. The Papp B→A (in general, how fast a substance crosses the layer from the basolateral side) at 10 µM in data set [2] turned out to be 22.8 ×10⁻⁶ cm/s. For the same compound, in [3], the Vd was found to be 1.37 L/kg. In addition, the figures for the fraction unbound at 5 h, 1 µM in [4], in [17] and in data set [19] were 0.0504, 0.0429 and 0.0407, respectively. In data set [5], the Activity result was “Non-Toxic”. Besides, the AUC(0-t) – broadly, exposure summed from dosing to a finite time, without extrapolation to infinity – at 24 h was determined as 505 ng·h/mL in [6] and 1400 ng·h/mL in data set [16]. The Cmax (as a rule, the highest concentration seen after dosing) amounted to 1000 ng/mL in data set [7] and 2280 ng/mL in data set [10]. Moreover, the IC50 – broadly, the concentration at which inhibition is half-maximal – is above 29 µM on Cytochrome P450 2C9, above 30 µM on hERG (KCNH2) and above 29 µM at Cytochrome P450 3A4. For the same compound, the half-life at 1 µM in data set [8] was found to be 51.1 min; in [9] it was 11.5 min; in [11], 36.9 min. Also, in the data set on Mus musculus, the inhibition (usually how much of the control response was suppressed) is “Active”. For the same compound, the inhibition in data set [13] worked out at 57%. Moreover, in [15], the Papp A→B (usually how fast a substance crosses the layer from the apical side) at 10 µM was 28.9 ×10⁻⁶ cm/s. The bioavailability in [18] came out at 107%.
